Experimental data published in patent US20250042889A1, “3CLPRO PROTEASE INHIBITOR” (SHANGHAI QILU PHARMACEUTICAL RESEARCH AND DEVELOPMENT …, priority 2021, published 2025).
Read-outs that look alike come from different tables or passages of the source.

Biological target: SARS-COV-2 3CLpro/Mpro protease (Severe acute respiratory syndrome coronavirus 2 (2019-nCoV) (SARS-CoV-2), UniProt P0DTD1)
Assay: Inhibitory effect on SARS-COV-2 3CLpro/Mpro protease by fluorescence resonance energy transfer
Type: biochemical
Conditions: activity intervals A-D
[1] = read-out: IC50 (nM), Inhibition on SARS-CoV-2 3CLpro/Mpro protease

SMILES | IC50 [1] [nM] | IC50 (IC50 (nM), Inhibition on SARS-CoV-2 3CLpro/Mpro protease) [nM]
CNc1cncc(C(=O)N2CCC[C@@H](Nc3c(C(=O)N4[C@H](C)COC[C@@H]4C)cc(Br)cc3[N+](=O)[O-])C2)c1 [Example 359] | 10 to 50 | –
CNc1cncc(C(=O)N2C[C@H](Nc3c(C(=O)N4CC5CCC(C4)O5)cc(Br)cc3[N+](=O)[O-])[C@@H](OC)C2)c1 [Example 360] | 10 to 50 | –
COCCN1CCN(C(=O)c2cc(Br)cc([N+](=O)[O-])c2N[C@@H]2CCCN(C(=O)[C@H]3CNCC(F)(F)C3)C2)CC1 [Example 361] | 10 to 50 | –
CNc1cncc(C(=O)N2C[C@H](Nc3c(C(=O)N4C[C@@H](C)O[C@@H](C)C4)cc(Br)cc3[N+](=O)[O-])C[C@H]2C(=O)N2CCNC(=O)C2)c1 [Example 364] | 50 to 100 | –
CNc1cncc(C(=O)N2C[C@H](Nc3c(C(=O)N4C[C@@H](C)O[C@@H](C)C4)cc(Br)cc3[N+](=O)[O-])C[C@H]2C(=O)N2CCc3nn(C)cc3C2)c1 [Example 365] | 50 to 100 | –
CNC(=O)[C@@H]1C[C@@H](Nc2c(C(=O)N3C[C@@H](C)O[C@@H](C)C3)cc(Br)cc2[N+](=O)[O-])CN1C(=O)c1cncc(NC)c1 [Example 366] | 10 to 50 | –
CNc1cncc(C(=O)N2C[C@H](Nc3c(C(=O)N4CCOC[C@H]4C)cc(Br)cc3[N+](=O)[O-])[C@@H](OC)C2)c1 [Example 367] | 10 to 50 | –
CNc1cncc(C(=O)N2CCC[C@@H](Nc3c(C(=O)N4CC(F)(F)OC(F)(F)C4)cc(Br)cc3[N+](=O)[O-])C2)c1 [Example 368, (R)-(5-bromo-2-((1-(5-(methylamino)nicotinoyl)piperidin-3-yl)amino)-3-nitrophenyl)(2,2,6,6-tetrafluoromorpholinyl)methanone] | 10 to 50 | –
CNc1cncc(C(=O)N2C[C@H](Nc3c(C(=O)N4C[C@@H](C)O[C@@H](C)C4)cc(Br)cc3[N+](=O)[O-])C[C@H]2C(=O)Nc2cnoc2)c1 [Example 369, (2S,4R)-4-((4-bromo-2-((2R,6S)-2,6-dimethylmorpholin-4-carbonyl)-6-nitrophenyl)amino)-N-(isoxazol-4-yl)-1-(5-(methylamino)nicotinoyl) pyrrolidin-2-formamide] | 50 to 100 | –
CNc1cncc(C(=O)N2C[C@H](Nc3c(C(=O)N4C[C@@H](C)O[C@@H](C)C4)cc(Br)cc3[N+](=O)[O-])C[C@H]2C(=O)Nc2cccc(Br)c2)c1 [Example 370] | 50 to 100 | –
CNc1cncc(C(=O)N2C[C@H](Nc3c(C(=O)N4C5CCCC4COC5)cc(Br)cc3[N+](=O)[O-])[C@@H](OC)C2)c1 [Example 371] | – | 10 to 50
CNc1cncc(C(=O)N2C[C@H](Nc3c(C(=O)N4CCC(F)(F)CC4)cc(Br)cc3[N+](=O)[O-])[C@@H](OC)C2)c1 [Example 372] | 10 to 50 | –
C#C[C@@H]1C[C@@H](Nc2c(C(=O)N3C[C@@H](C)O[C@@H](C)C3)cc(Br)cc2[N+](=O)[O-])CN1C(=O)c1cncc(NC)c1 [Example 373] | 50 to 100 | –
CNc1cncc(C(=O)N2C[C@H](Nc3c(C(=O)N4CCCC(F)(F)C4)cc(Br)cc3[N+](=O)[O-])[C@@H](OC)C2)c1 [Example 374] | 10 to 50 | –
CNc1cncc(C(=O)N2C[C@H](Nc3c(C(=O)N4CCOC(F)(F)C4)cc(Br)cc3[N+](=O)[O-])[C@@H](OC)C2)c1 [Example 375] | 10 to 50 | –
CNc1cncc(C(=O)N2C[C@H](Nc3c(C(=O)N4C[C@@H](C)O[C@@H](C)C4)cc(Br)cc3[N+](=O)[O-])C[C@H]2C(=O)N2CCOCC2)c1 [Example 376] | 50 to 100 | –
CNc1cncc(C(=O)N2C[C@H](Nc3c(C(=O)N4C[C@@H](C)O[C@@H](C)C4)cc(Br)cc3[N+](=O)[O-])C[C@H]2C(=O)N(C)C)c1 [Example 377] | 50 to 100 | –
CNc1cncc(C(=O)N2C[C@H](Nc3c(C(=O)N4C[C@@H](C)O[C@@H](C)C4)cc(Br)cc3[N+](=O)[O-])C[C@H]2C(=O)NC2CNC(=O)C2)c1 (stereo partly drawn) [Example 378] | 10 to 50 | –
